Source: publication PMC12684298, “The Parkinson's Disease Drug Tolcapone and Analogues are Potent Glycomimetic Lectin Inhibitors of Pseudomonas aeruginosa LecA” (Angewandte Chemie (International Ed. in English), 2025)
Where “and” joins values, the source holds several entries; their conditions need not be identical. Identical values can stand only once. Like-named read-outs stand apart in the source and are kept apart here.

Legend:
LecA [1] = target: T1, LecA (Pseudomonas aeruginosa, UniProt Q05097); assay: Library screening using the FP competitive binding assay (three concentrations); conditions: read-out: Activity [%] (% inhibition relative to 500 µM pNPGal)
T1 construct: made in house; host or cells: E. coli BL21 (DE3), plasmid pET25pa11
Excerpt: Next, we screened a library of catechols from F. Hoffmann‐La Roche, the developer of Tolcapone, in the competitive binding assay to establish a structure–activity relationship. To this end, two sets of compounds with a molecular cut‐off of 500 Da were chosen: a first set of 342 compounds contained derivatives of Tolcapone, while a second set of 3222 compounds comprised catechols covering a larger chemical space. […] Tests were run in a 384‐well‐plate format at three concentrations (first set at 125, 32, and 4 µM, second set at 100, 25, and 3 µM) in presence of 10% DMSO and 250 µM 2‐mercaptoethanol to prevent interference by a potential unspecific reactivity of electron‐rich catechols as established earlier.^[ [30] ^]
The screening followed the same assay by Joachim et al.^[2] as described above. Compounds in DMSO (1 µL with the appropriate concentration) were plated using a robot into black 384-well microtiter plates (Greiner Bio-One, Germany, cat no 781900) by the Roche compound handling facility at four replicates per concentration and compound. A mixture of LecA, sulfo-Cy5-Gal and 2-mercaptoethanol in TBS/Ca (20 mM Tris, 147 mM NaCl, 2.6 mM KCl at pH 7.4 supplemented with 1 mM CaCl2) with DMSO was added at HIPS. Final concentrations in both screening rounds were the following: 5 µM LecA, 250 µM 2-mercaptoethanol, 10 nM sulfo-Cy5-Gal and 10% DMSO. Final concentrations of the 342 compounds of the first screening round were 125 µM, 32 µM and 4 µM. The 3222 compounds of the second screening round were tested at final concentrations of 100 µM, 25 µM and 3 µM. The plate was sealed (EASYseal, Greiner Bio-One, cat no 676001), briefly centrifuged and incubated at room temperature in the dark under shaking conditions. Fluorescence intensities were measured after 1 h and 24 h using a PheraStar FS plate reader (BMG Labtech GmbH, Germany) with spectral filters for excitation at 590 nm and emission at 675 nm and polarization was calculated after blank values of 5 µM LecA in TBS/Ca buffer with 250 µM 2-mercaptoethanol and 10% DMSO were subtracted from the test compounds. The data were analysed using the MARS Data Analysis software. […] All stated values are the average including the standard deviation based on three replicates for 100 µM and four replicates in the case of compounds at 125 µM.

LecA [2] = target: T1, LecA; assay: biochemical; assay type: binding
Method: Therefore, we focused our attention on commercially available nitro‐catechols. Prominent derivatives are inhibitors of the enzyme catechol‐O‐methyltransferase (COMT) and approved drugs for the treatment of Parkinson's disease. Four commercial COMT inhibitors were thus evaluated in a previously reported competitive binding assay based on fluorescence polarisation (FP, Table 1, Figure 1).^[ [32] ^]
The competitive binding assay was performed in analogy to Joachim et al.^[2] 10 µL of a solution containing LecA (40 µM) and sulfo-Cy5-Gal (20 nM, synthesis described in Kuhaudomlarp, Siebs et al.^[5]) in TBS/Ca buffer (20 mM Tris, 147 mM NaCl, 2.6 mM KCl at pH 7.4 supplemented with 1 mM CaCl2) were distributed in into wells of a black 384-well microtiter plate (Greiner Bio-One, Germany, cat no 781900). Then, 10 µL of serial dilutions of compounds (3 mM to 1.5 µM, dilution factor 0.5) in TBS/Ca with 40% DMSO were added in technical triplicates. Final concentrations after mixing were the following: 1.5 mM – 0.73 µM compound, 20 µM LecA, 10 nM sulfo-Cy5-Gal and 20% DMSO. The plate was sealed (EASYseal, Greiner Bio-One, cat no 676001), briefly centrifuged and incubated at room temperature in the dark under shaking conditions. Fluorescence intensity was measured after 1 h and 4 h using a PheraStar FS plate reader (BMG Labtech GmbH, Germany) with spectral filters for excitation at 590 nm and emission at 675 nm and polarization was calculated after blank values of 20 µM LecA in TBS/Ca buffer with 20% DMSO were subtracted from the test compounds. The data were analysed using the four-parameter variable slope model of the MARS Data Analysis software. The top and bottom plateau were assigned based on the control compound methyl α-d-galactoside and the data was reanalysed with these fixed values. If not mentioned otherwise, the experiment was repeated at least three times for each compound and the average and standard deviation are given. In case Triton X-100 was used it was added to the TBS/Ca buffer before the assay.

LecA [3] = target: T1, LecA; assay: Ligand-observed 19F NMR binding and competitive displacement with pNPGal; conditions: for 19F NMR peak intensity [%]: 50 µM ligand
Method: The presence of two fluorine atoms in the high affinity ligand 33 enabled another orthogonal LecA binding experiment (Figure 5c). In analogy to Denavit et al.,^[ [34] ^] ligand‐observed ^19F NMR spectra of 50 µM 33 were recorded in absence and in presence of LecA (100 µM). […] Importantly, the ligand's fluorine signal was restored when pNPGal was added as competitor molecule, indicating the specific and reversible catechol – LecA interaction.
RO0412970 was mixed with trifluoroacetic acid (TFA) as internal standard in non-deuterated TBS/Ca (20 mM Tris, 147 mM NaCl, 2.6 mM KCl at pH 7.4 supplemented with 1 mM CaCl2) and 10% DMSO-d6. From this mixture, one sample with LecA and one without LecA (as control) were prepared. […] Directly after the addition, spectra of both samples were recorded and the data was analysed with MestReNova 14.2.0. The spectra were referenced to TFA (-75.6 ppm) and the peak intensity of RO412970 compared to the internal standard TFA was calculated.

LecA [4] = target: T1, LecA; assay: biochemical; assay type: binding; conditions: ITC
Method: Isothermal titration calorimetry was performed on a MicroCal PEAQ-ITC (Malvern Panalytical) at 25 °C and 750 rpm stirring. The cell was filled with LecA (75 - 111 µM) in TBS/Ca buffer (20 mM Tris, 147 mM NaCl, 2.6 mM KCl at pH 7.4 supplemented with 1 mM CaCl2) with 20% DMSO and titrated with ligand (0.75 mM or 1.5 mM, 19 injections) in the same buffer. Data were analysed using the one binding site model in the MicroCal PEAQ-ITC analysis software (Malvern Panalytical). The first injection of each titration was excluded and the baseline subtracted for the final figures. Three titration per compound were performed and the average as well as standard deviation are given.

[5] = individual replicate (Repl. 1-3)

T1 sequence (Q05097 whole entry): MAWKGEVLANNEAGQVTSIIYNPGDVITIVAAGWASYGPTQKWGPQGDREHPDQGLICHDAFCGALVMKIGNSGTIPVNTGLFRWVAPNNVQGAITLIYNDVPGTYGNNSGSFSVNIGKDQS

## Cn1nc(-c2cc(O)c(O)c([N+](=O)[O-])c2)cc1O [compound 18]
LecA [1]
  inhibition at 100 µM: 1.9 ± 3.3%

## CC(=O)c1cc(O)c(O)c([N+](=O)[O-])c1 [compound 19]
LecA [1]
  inhibition at 100 µM: 31.5 ± 3.8%

## CCOC(=O)c1cc(O)c(O)c([N+](=O)[O-])c1 [compound 20]
LecA [1]
  inhibition at 100 µM: 14 ± 4.2%

## CCCCOC(=O)c1cc(O)c(O)c([N+](=O)[O-])c1 [compound 21]
LecA [1]
  inhibition at 100 µM: 22.9 ± 1.8%

## O=C(Nc1ccc(F)cc1)c1cc(O)c(O)c([N+](=O)[O-])c1 [compound 22]
LecA [1]
  inhibition at 100 µM: 8.7 ± 3.3%

## O=C(NCc1ccccc1)c1cc(O)c(O)c([N+](=O)[O-])c1 [compound 23]
LecA [1]
  inhibition at 100 µM: 26.6 ± 4.2%

## O=C(NC12CC3CC(CC(C3)C1)C2)c1cc(O)c(O)c([N+](=O)[O-])c1 [compound 24]
LecA [1]
  inhibition at 100 µM: 10 ± 3.6%

## O=C(c1cc(O)c(O)c([N+](=O)[O-])c1)N1CCCCC1 [compound 25]
LecA [1]
  inhibition at 100 µM: 5 ± 11.8%

## O=C(c1cc(O)c(O)c([N+](=O)[O-])c1)c1ncc[nH]1 [compound 26]
LecA [1]
  inhibition at 100 µM: 16.8 ± 3.8%

## O=C(c1cc(O)c(O)c([N+](=O)[O-])c1)C1CCCCC1 [compound 27]
LecA [1]
  inhibition at 100 µM: 23.4 ± 3.6%

## O=C(c1cc(O)c(O)c([N+](=O)[O-])c1)c1nc2ccccc2[nH]1 [compound 28]
LecA [1]
  inhibition at 100 µM: 26.7 ± 3.6%

## O=C(c1ccccc1)c1cc(O)c(O)c([N+](=O)[O-])c1 [compound 29]
LecA [1]
  inhibition at 100 µM: 41.8 ± 7.3%

## O=C(c1cc(O)c(O)c([N+](=O)[O-])c1)c1c(F)cccc1F [compound 33]
LecA [2]; IC50, extended dose-response analysis, 20% DMSO, no 2-mercaptoethanol, three experiments
  IC50: 94 µM
LecA [2]; IC50 in presence of 0.01% Triton X-100, FP assay, 0.01% Triton X-100, one replicate
  IC50: 81 µM
LecA [2]; IC50 in presence of 0.057% Triton X-100, FP assay, 0.057% Triton X-100, one replicate
  IC50: 91 µM
LecA [3]; 100 µM LecA, after pNPGal (1 mM)
  19F NMR peak intensity [%]: 79%
LecA [3]; 100 µM LecA, before pNPGal
  19F NMR peak intensity [%]: 1%
LecA [3]; no LecA, after pNPGal (1 mM), defined as 100%
  19F NMR peak intensity [%]: 100%
LecA [3]; no LecA, before pNPGal, relative to TFA standard
  19F NMR peak intensity [%]: 106%
LecA [3]; LecA, after pNPGal
  19F NMR intensity ratio catechol/TFA: 0.2160
LecA [3]; LecA, before pNPGal
  19F NMR intensity ratio catechol/TFA: 0.0036
LecA [3]; no LecA, after pNPGal
  19F NMR intensity ratio catechol/TFA: 0.2752
LecA [3]; no LecA, before pNPGal
  19F NMR intensity ratio catechol/TFA: 0.2923
LecA [4]; average of three titrations
  N (sites): 0.82 ± 0.03 and 0.820
  ΔG: -27.6 ± 0.4 kJ/mol and -27.6 kJ/mol
  ΔH: -24.4 ± 2.2 kJ/mol and -24.4 kJ/mol
LecA [4]; [5]
  -TΔS: -5.7 kJ/mol and -3.3 kJ/mol and -0.7 kJ/mol
  N (sites): 0.846 and 0.788 and 0.827
  ΔG: -27.9 kJ/mol and -27.7 kJ/mol and -27.2 kJ/mol
  ΔH: -22.2 kJ/mol and -24.4 kJ/mol and -26.5 kJ/mol
LecA [4]; KD, 25 °C, 20% DMSO, average of three titrations
  Kd: 15 µM
LecA [4]; KD, individual replicate (Repl. 1-3)
  Kd: 13.2 µM and 14.4 µM and 17.3 µM

## O=[N+]([O-])c1ccc(O[C@@H]2O[C@H](CO)[C@H](O)[C@H](O)[C@H]2O)cc1 [pNPGal, para‐nitrophenyl β‐D‐galactoside, reference compound]
LecA [4]; 25 °C, 20% DMSO, average of three titrations, read-out: KD
  Kd: 10.1 µM
LecA [4]; average of three titrations
  N (sites): 0.81 ± 0.09 and 0.810
  ΔG: -28.6 ± 0.3 kJ/mol and -28.6 kJ/mol
LecA [4]; [5]
  -TΔS: 24.4 kJ/mol and 19.4 kJ/mol and 21.0 kJ/mol
  N (sites): 0.722 and 0.801 and 0.908
  ΔG: -28.4 kJ/mol (2×) and -28.9 kJ/mol
  ΔH: -52.7 kJ/mol and -48.3 kJ/mol and -49.4 kJ/mol
LecA [4]; individual replicate (Repl. 1-3), read-out: KD
  Kd: 10.8 µM (2×) and 8.8 µM
